Test results from publication PMC7497016, “The Human Host‐Defense Peptide Cathelicidin LL‐37 is a Nanomolar Inhibitor of Amyloid Self‐Assembly of Islet Amyloid Polypeptide (IAPP)” (Angewandte Chemie (International Ed. in English), 2020).
Where two headings read alike, the source gives them in different places. Ends that are not written are not given here.

Key:
[1] = biological target: T1, IAPP (Fluos-IAPP, mostly monomers) (Homo sapiens, UniProt P10997); experiment: Fluorescence spectroscopic titration of Fluos-IAPP; format: binding; conditions: for Kd: SD
T1 construct: made in house; host or cells: chemical synthesis
T1 sequence (P10997 34-70 limits assumed): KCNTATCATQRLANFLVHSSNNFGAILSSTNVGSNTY
Method: Fluorescence spectros copic titrations
Fluorescence spectrosco pic titration studies w ere performed with a JASC O FP-6500 fluorescence spectrophotometer using a previously described experimental protocol.[1, 5, 7] Briefly, excitation was at 492 nm and emission spectra were recorded between 500 and 600 nm. The app arent (app.) Kds of the interactions of IAPP with LL-37 and its segments LL-37(1- 14) and LL-37(15- 37) were quantified by titrating synthetic N α-amino-terminal fluorescein labeled IAPP (5 nM) with various amounts of each of the peptides . For all exp eri ments , freshly made stocks of peptides and their fluorescently lab eled an alogs in HF IP wer e used. Measurements w er e performed in 10 mM sodium phosphate buffer (pH 7.4) containing 1% HFIP within 2-5 min following solution preparation at room temperature. Of note, under these conditions freshly made Fluos-IAPP (5 nM) solutions consist mostly of monomers.[1] App. Kds were calculated using 1/1 binding models as previously described and ar e means (± SD) of three binding curves.[1, 3, 5, 7]
Cross-linking, NuPAGE, and Western Blot analysis
Cross-linking studies were preformed using a previously developed assay system.[5] Briefly, solutions of IAPP alone (30 µM) and its mixtures with LL-37 or scrLL- 37 at the indicated molar ratios (IAPP/LL-37 at 1/1 or 1/0.1) wer e p repared in aqueous sodium phosphate buffer, pH 7.4,

[2] = system: cytotoxic IAPP assemblies on RIN5fm cells
RIN5fm cells = conditions: LL-37 alone, 7 days aged, 1 assay, n=3
[3] = biological target: T2, IAPP monomers and fibrils (Homo sapiens, UniProt P10997); experiment: Dot blot binding to IAPP monomers and fibrils; conditions: IAPP monomers and fibrils (40 µg) on nitrocellulose, FAM-LL-37 200 nM, overnight 10 °C; representative of 4 assays
T2 construct: The 37‐residue IAPP is secreted from the β‐cells together with insulin; made in house; host or cells: chemical synthesis (Fmoc solid-phase synthesis on Rink resin)
T2 sequence (P10997 34-70 limits assumed): T1 sequence (P10997 34-70 limits assumed)
Method: Solutions were cross-linked using 25% aqueous glutaraldehyde (Sigma-Aldrich) an d 10% aqueous trichloro acetic acid (TCA ) was […] buffer, boiled for 5 min, and subjected to NuPAGE electrophoresis in 4- 12% Bis-Tris gels with MES running buffer (Invitrogen). The s ame volume of each solution (same IAPP amount) was loaded in all l anes. Peptid es were blotted using a X Cell II Blot Module blotting system (Invitrogen ). IAPP or […] using a polyclonal rabbit anti-IAPP antibody (Peninsula) or a monoclonal mouse anti-LL- 37 antibody (Santa Cruz Biotechnology), resp ectively in combination with suitable peroxidase (POD)-coupled s econdary antibodies (Pierce & Am […] Super Signal West Dura Extended Duration Substrate (Pierce). Of note, previous studies provided evidence for the […] of th e cross-linking assay; in addition, no new bands were obs […]-37 (1/1) mixtures (data not shown).[5] Dot blot analysis IAPP monomers or IAPP fibrils (fIAPP) containin g solutions (different am ounts up to 40 μg) were spotted onto a nitrocellulose membrane. […] In addition, to control for t he interference of fibril autofluorescence, a membrane containing spotted f IA P P which had been incubated in buffer alone w/o FAM-LL-37 was included in each assay; in general, fIAPP autofluorescence contribute d up to 25% of the total amount of fluorescence observed in fIAPP bound toFAM -LL- 37. […]

[4] = Fluos-IAPP 5 nM, 10 mM sodium phosphate pH 7.4, 1% HFIP, room temperature, 1/1 binding model, mean (±SD) of three binding curves, read-out: app. Kd of interaction with Fluos-IAPP

CC[C@H](C)[C@H](NC(=O)[C@H](CCCCN)NC(=O)[C@H](CCC(=O)O)NC(=O)[C@H](CCCCN)NC(=O)[C@H](CO)NC(=O)[C@H](CCCCN)NC(=O)[C@H](CCCNC(=N)N)NC(=O)[C@H](Cc1ccccc1)NC(=O)[C@H](Cc1ccccc1)NC(=O)[C@H](CC(=O)O)NC(=O)CNC(=O)[C@H](CC(C)C)NC(=O)[C@@H](N)CC(C)C)C(=O)NCC(=O)N[C@@H](CCCCN)C(=O)N[C@@H](CCC(=O)O)C(=O)N[C@@H](Cc1ccccc1)C(=O)N[C@@H](CCCCN)C(=O)N[C@@H](CCCNC(=N)N)C(=O)N[C@H](C(=O)N[C@H](C(=O)N[C@@H](CCC(N)=O)C(=O)N[C@@H](CCCNC(=N)N)C(=O)N[C@H](C(=O)N[C@@H](CCCCN)C(=O)N[C@@H](CC(=O)O)C(=O)N[C@@H](Cc1ccccc1)C(=O)N[C@@H](CC(C)C)C(=O)N[C@@H](CCCNC(=N)N)C(=O)N[C@@H](CC(N)=O)C(=O)N[C@@H](CC(C)C)C(=O)N[C@H](C(=O)N1CCC[C@H]1C(=O)N[C@@H](CCCNC(=N)N)C(=O)N[C@H](C(=O)N[C@@H](CCC(=O)O)C(=O)N[C@@H](CO)C(=O)O)[C@@H](C)O)C(C)C)[C@@H](C)CC)C(C)C)[C@@H](C)CC [LL-37]
increase in fluorescence emission of Fluos-IAPP ([1]; Fluos-IAPP 5 nM with 100-fold molar excess of LL-37, pH 7.4): 322%
Kd [1]: 0.0881 µM
effect on formation of cytotoxic IAPP assemblies (MTT reduction) [2]: effectively suppressed
IC50 ([2]; rat, SD): 0.017 µM
cytotoxicity of peptide alone (MTT reduction) (RIN5fm cells): not cytotoxic

FAM-LL-37: N-terminal fluorescein-labeled LL-37 with 6-aminohexanoic acid spacer, from Anaspec
binding to IAPP fibrils and monomers (dot blot) [3]: bound both IAPP fibrils and monomers

KEFKRIVQRIKDFLRNLVPRTES [LL-37(15-37)]
Kd [1, 4]: 0.0319 µM

LLGDFFRKSKEKIG [LL-37(1-14)]
Kd [1, 4]: 2.54 µM
